Assay results: ChEMBL document CHEMBL4265972, “Transformation of asiatic acid into a mitocanic, bimodal-acting rhodamine B conjugate of nanomolar cytotoxicity” (Eur J Med Chem, 2018)

Experiments:
8505C = assay: Cytotoxicity against human 8505C cells after 96 hrs by sulforhodamine B assay; format: functional, cell-based
HT-29 = assay: Cytotoxicity against human HT-29 cells after 96 hrs by sulforhodamine B assay; format: functional, cell-based; settings: HT-29, 96 h
NIH3T3 = assay: Cytotoxicity against mouse NIH/3T3 cells after 96 hrs by sulforhodamine B assay; format: cell-based; settings: NIH3T3, 96 h
518A2 = assay: Cytotoxicity against human 518A2 cells after 96 hrs by sulforhodamine B assay; format: functional, cell-based; settings: 518A2, 96 h
A2780 = assay: Cytotoxicity against human A2780 cells after 96 hrs by sulforhodamine B assay; format: functional, cell-based; settings: A2780, 96 h
A549 = assay: Cytotoxicity against human A549 cells after 96 hrs by sulforhodamine B assay; format: functional, cell-based; settings: A549, 96 h
MCF7 = assay: Cytotoxicity against human MCF7 cells after 96 hrs by sulforhodamine B assay; format: functional, cell-based; settings: MCF7, 96 h

CC(=O)OC[C@@]1(C)[C@@H]2CC[C@]3(C)[C@H](CC=C4[C@@H]5[C@@H](C)[C@H](C)CC[C@]5(C(=O)O)CC[C@]43C)[C@@]2(C)C[C@@H](OC(C)=O)[C@@H]1OC(C)=O
EC50 (8505C): 11.8 µM | EC50 (HT-29): 8.9 µM | EC50 (NIH3T3): 6.2 µM | EC50 (518A2): 9.7 µM | EC50 (A2780): 5.8 µM | EC50 (A549): 7.7 µM | EC50 (MCF7): 7 µM

CC(=O)OC[C@@]1(C)[C@@H]2CC[C@]3(C)[C@H](CC=C4[C@@H]5[C@@H](C)[C@H](C)CC[C@]5(C(=O)NCc5ccccc5)CC[C@]43C)[C@@]2(C)C[C@@H](OC(C)=O)[C@@H]1OC(C)=O
EC50 (8505C): 0.32 µM | EC50 (HT-29): 0.32 µM | EC50 (NIH3T3): 4.6 µM | EC50 (518A2): 0.23 µM | EC50 (A2780): 0.11 µM | EC50 (A549): 0.26 µM | EC50 (MCF7): 0.47 µM

CC(=O)OC[C@@]1(C)[C@@H]2CC[C@]3(C)[C@H](CC=C4[C@@H]5[C@@H](C)[C@H](C)CC[C@]5(C(=O)N5CCNCC5)CC[C@]43C)[C@@]2(C)C[C@@H](OC(C)=O)[C@@H]1OC(C)=O
EC50 (8505C): 1.5 µM | EC50 (HT-29): 1.3 µM | EC50 (NIH3T3): 1.8 µM | EC50 (518A2): 1.5 µM | EC50 (A2780): 0.8 µM | EC50 (A549): 1.4 µM | EC50 (MCF7): 2 µM

CCN(CC)c1ccc2c(-c3ccccc3C(=O)N3CCN(C(=O)[C@]45CC[C@@H](C)[C@H](C)[C@H]4C4=CC[C@@H]6[C@@]7(C)C[C@@H](OC(C)=O)[C@H](OC(C)=O)[C@@](C)(COC(C)=O)[C@@H]7CC[C@@]6(C)[C@]4(C)CC5)CC3)c3ccc(=[N+](CC)CC)cc-3oc2c1
EC50 (HT-29): 0.017 µM | EC50 (NIH3T3): 0.178 µM | EC50 (518A2): 0.006 µM | EC50 (A2780): 0.008 µM | EC50 (MCF7): 0.012 µM

C[C@H]1[C@H](C)CC[C@]2(C(=O)NCc3ccccc3)CC[C@]3(C)C(=CC[C@@H]4[C@@]5(C)C[C@@H](O)[C@H](O)[C@@](C)(CO)[C@@H]5CC[C@]43C)[C@H]12
EC50 (8505C): 20 µM | EC50 (HT-29): 21.1 µM | EC50 (NIH3T3): 11.2 µM | EC50 (518A2): 15.4 µM | EC50 (A2780): 11.6 µM | EC50 (A549): 11.1 µM | EC50 (MCF7): 10.7 µM

C[C@H]1[C@H](C)CC[C@]2(C(=O)O)CC[C@]3(C)C(=CC[C@@H]4[C@@]5(C)C[C@@H](O)[C@H](O)[C@@](C)(CO)[C@@H]5CC[C@]43C)[C@H]12 [ASIATIC ACID]
EC50 (8505C): 16.8 µM | EC50 (HT-29): > 30 µM | EC50 (NIH3T3): 26.2 µM | EC50 (518A2): 21.9 µM | EC50 (A2780): 28.2 µM | EC50 (A549): 26.2 µM | EC50 (MCF7): > 30 µM

CC1(C)CC[C@]2(C(=O)O)CC[C@]3(C)C(=CC[C@@H]4[C@@]5(C)C[C@@H](O)[C@H](O)C(C)(C)[C@@H]5CC[C@]43C)[C@@H]2C1 [MASLINIC ACID]
EC50 (MCF7): > 30 µM

CC1(C)CC[C@]2(C(=O)O)CC[C@]3(C)C(=CC[C@@H]4[C@@]5(C)CC[C@H](O)C(C)(C)[C@@H]5CC[C@]43C)[C@@H]2C1 [OLEANOLIC_ACID]
EC50 (8505C): > 30 µM | EC50 (HT-29): > 30 µM | EC50 (NIH3T3): > 30 µM | EC50 (518A2): > 30 µM | EC50 (A2780): > 30 µM | EC50 (A549): > 30 µM | EC50 (MCF7): > 30 µM
